Data taken from patent US10208047B2, “Tertiary alcohol imidazopyrazine BTK inhibitors” (Merck Sharp & Dohme Corp., priority 2014, dated 2019).

Molecular target: BTK enzyme (recombinant full-length BTK, hBTK) (Homo sapiens (Human), UniProt Q06187)
Assay: Btk enzyme activity assay, LANCE TR-FRET
Type: biochemical
Details: 50 pM hBTK, 2 μM biotin-A5-peptide, 25 μM ATP, 60 minute compound & enzyme incubation, compound range 1 μM to 0.017 nM, read-out: BTK binding IC50
Description: Btk Enzyme Activity Assay Methods
BTK enzymatic activity was determined with the LANCE (Lanthanide Chelate Excite) TR-FRET (Time-resolved fluorescence resonance energy transfer) assay. In this assay, the potency (IC50) of each compound was determined from an eleven point (1:3 serial dilution; final compound concentration range in assay from 1 μM to 0.017 nM) titration curve using the following outlined procedure. To each well of a black non-binding surface Corning 384-well microplate (Corning Catalog #3820), 5 nL of compound (2000 fold dilution in final assay volume of 10 μL) was dispensed, followed by the addition of 7.5 μL of 1× kinase buffer (50 mM Hepes 7.5, 10 mM MgCl2, 0.01% Brij-35, 1 mM EGTA, 0.05% BSA & 1 mM DTT) containing 5.09 pg/μL (66.67 pM) of BTK enzyme (recombinant protein from baculovirus-transfected Sf9 cells: full-length BTK, 6HIS-tag cleaved). Following a 60 minute compound & enzyme incubation, each reaction was initiated by the addition of 2.5 μL 1× kinase buffer containing 8 μM biotinylated “A5” peptide (Biotin-EQEDEPEGDYFEWLE-NH2) (SEQ.ID.NO.: 1), and 100 μM ATP. The final reaction in each well of 10 μL consists of 50 pM hBTK, 2 μM biotin-A5-peptide, and 25 μM ATP. Phosphorylation reactions were allowed to proceed for 120 minutes. Reactions were immediately quenched by the addition of 20 uL of 1× quench buffer (15 mM EDTA, 25 mM Hepes 7.3, and 0.1% Triton X-100) containing detection reagents (0.626 nM of LANCE-Eu-W1024-anti-phosphoTyrosine antibody, PerkinElmer and 86.8 nM of Streptavidin-conjugated Dylight 650, Dyomics/ThermoFisher Scientific). After 60 minutes incubation with detection reagents, reaction plates were read on a PerkinElmer EnVision plate reader using standard TR-FRET protocol. Briefly, excitation of donor molecules (Eu-chelate:anti-phospho-antibody) with a laser light source at 337 nm produces energy that can be transferred to Dylight-650 acceptor molecules if this donor:acceptor pair is within close proximity. Fluorescence intensity at both 665 nm (acceptor) and 615 nm (donor) are measured and a TR-FRET ratio calculated for each well (acceptor intensity/donor intensity). IC50 values were determined by 4 parameter robust fit of TR-FRET ratio values vs. (Log10) compound concentrations.

Sequence of BTK enzyme (recombinant full-length BTK, hBTK) (Q06187 whole entry): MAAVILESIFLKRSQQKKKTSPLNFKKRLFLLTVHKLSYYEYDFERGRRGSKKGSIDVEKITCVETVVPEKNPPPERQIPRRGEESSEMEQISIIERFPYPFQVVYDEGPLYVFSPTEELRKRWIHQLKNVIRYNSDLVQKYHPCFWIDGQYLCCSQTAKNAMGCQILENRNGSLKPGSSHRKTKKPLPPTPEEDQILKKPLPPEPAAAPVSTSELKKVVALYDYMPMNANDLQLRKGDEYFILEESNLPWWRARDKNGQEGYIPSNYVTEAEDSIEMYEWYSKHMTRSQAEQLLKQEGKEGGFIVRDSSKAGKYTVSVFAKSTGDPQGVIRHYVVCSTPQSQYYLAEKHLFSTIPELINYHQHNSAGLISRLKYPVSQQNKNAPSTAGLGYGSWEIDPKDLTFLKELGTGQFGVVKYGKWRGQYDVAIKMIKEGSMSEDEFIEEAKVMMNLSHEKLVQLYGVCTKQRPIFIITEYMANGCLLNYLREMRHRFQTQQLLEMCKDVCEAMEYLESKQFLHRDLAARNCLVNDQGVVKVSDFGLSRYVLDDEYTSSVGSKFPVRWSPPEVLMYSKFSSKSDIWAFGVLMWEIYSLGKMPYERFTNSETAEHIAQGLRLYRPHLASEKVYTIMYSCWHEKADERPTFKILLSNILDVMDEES

IC50 [µM] | Structure (SMILES)
0.0394 | CC1(C(=O)O)CCC(C)(c2nc(-c3ccc([C@@](C)(O)c4cccc(C(F)(F)F)c4)cc3)c3c(N)nccn23)CC1 (stereo partly drawn) [Example 1, (R)-4-(8-amino-1-(4-(1-hydroxy-1-(3-(trifluoromethyl)phenyl)ethyl)phenyl)imidazo[1,5-a]pyrazin-3-yl)-1,4-dimethylcyclohexanecarboxylic acid]
0.0058 | C[C@](O)(c1ccc(-c2nc(C34CCC(C(=O)O)(CC3)CC4)n3ccnc(N)c23)cc1)c1cccc(C(F)(F)F)c1 [Example 2, 4-[8-amino-1-(4-{(1S)-1-hydroxy-1-[3-(trifluoromethyl)phenyl]ethyl}phenyl)imidazo[1,5-a]pyrazin-3-yl]bicyclo[2.2.2]octane-1-carboxylic acid]
0.775 | C[C@@](O)(c1ccc(-c2nc(C34CCC(C(=O)O)(CC3)CC4)n3ccnc(N)c23)cc1)c1cccc(C(F)(F)F)c1 [Example 3, 4-[8-amino-1-(4-{(1R)-1-hydroxy-1-[3-(trifluoromethyl)phenyl]ethyl}phenyl)imidazo[1,5-a]pyrazin-3-yl]bicyclo[2.2.2]octane-1-carboxylic acid]
1 | CC(C)[C@]1(C(=O)O)CC[C@H](c2nc(-c3ccc([C@](C)(O)c4cccc(C(F)(F)F)c4)cc3)c3c(N)nccn23)C1 [Example 4, (1S,3S)-3-[8-amino-1-(4-{(1S)-1-hydroxy-1-[3-(trifluoromethyl)phenyl]ethyl}phenyl)imidazo[1,5-a]pyrazin-3-yl]-1-(1-methylethyl)cyclopentanecarboxylic acid]
0.019 | CC(C)[C@]1(C(=O)O)CC[C@H](c2nc(-c3ccc([C@@](C)(O)c4cccc(C(F)(F)F)c4)cc3)c3c(N)nccn23)C1 [Example 5, (1S,3S)-3-[8-amino-1-(4-{(1R)-1-hydroxy-1-[3-(trifluoromethyl)phenyl]ethyl}phenyl)imidazo[1,5-a]pyrazin-3-yl]-1-(1-methylethyl)cyclopentanecarboxylic acid]
0.052 | C[C@@](O)(c1ccc(-c2nc(C34CCC(C(=O)O)(CC3=O)C(=O)C4)n3ccnc(N)c23)cc1)c1cccc(C(F)(F)F)c1 (stereo partly drawn) [Example 6, 4-[8-amino-1-(4-{(1R)-1-hydroxy-1-[3-(trifluoromethyl)phenyl]ethyl}phenyl)imidazo[1,5-a]pyrazin-3-yl]-2,5-dioxobicyclo[2.2.2]octane-1-carboxylic acid]
0.614 | C[C@@](O)(c1ccc(-c2nc(C3(C(=O)O)CC3)n3ccnc(N)c23)cc1)c1cccc(C(F)(F)F)c1 [Example 7, 1-[8-amino-1-(4-{(1R)-1-hydroxy-1-[3-(trifluoromethyl)phenyl]ethyl}phenyl)imidazo[1,5-a]pyrazin-3-yl]cyclopropanecarboxylic acid]
0.0011 | C[C@@](O)(c1ccc(-c2nc(C34CCC(C(=O)O)(CC3)C4)n3ccnc(N)c23)cc1)c1cccc(C(F)(F)F)c1 [Example 8, 4-[8-amino-1-(4-{(1R)-1-hydroxy-1-[3-(trifluoromethyl)phenyl]ethyl}phenyl)imidazo[1,5-a]pyrazin-3-yl]bicyclo[2.2.1]heptane-1-carboxylic acid]
0.007 | C[C@@](O)(c1ccc(-c2nc(C34CCCC(C(=O)O)(CC3)CC4)n3ccnc(N)c23)cc1)c1cccc(C(F)(F)F)c1 [Example 9, 5-[8-amino-1-(4-{(1R)-1-hydroxy-1-[3-(trifluoromethyl)phenyl]ethyl}phenyl)imidazo[1,5-a]pyrazin-3-yl]bicyclo[3.2.2]nonane-1-carboxylic acid]
0.294 | C[C@@](O)(c1ccc(-c2nc(C3(C(=O)O)CCOCC3)n3ccnc(N)c23)cc1)c1cccc(C(F)(F)F)c1 [Example 10, 4-[8-amino-1-(4-{(1R)-1-hydroxy-1-[3-(trifluoromethyl)phenyl]ethyl}phenyl)imidazo[1,5-a]pyrazin-3-yl]tetrahydro-2H-pyran-4-carboxylic acid]
0.005 | CC1(C)[C@H](c2nc(-c3ccc([C@@](C)(O)c4cccc(C(F)(F)F)c4)cc3)c3c(N)nccn23)CC[C@]1(C)C(=O)O [Example 11, (1S,3R)-3-[8-amino-1-(4-{(1R)-1-hydroxy-1-[3-(trifluoromethyl)phenyl]ethyl}phenyl)imidazo[1,5-a]pyrazin-3-yl]-1,2,2-trimethylcyclopentanecarboxylic acid]
0.0173 | C[C@@](O)(c1ccc(-c2nc(C34CCC(C(=O)O)(CC3(F)F)C(F)(F)C4)n3ccnc(N)c23)cc1)c1cccc(C(F)(F)F)c1 (stereo partly drawn) [Example 12, 4-[8-amino-1-(4-{(1R)-1-hydroxy-1-[3-(trifluoromethyl)phenyl]ethyl}phenyl)imidazo[1,5-a]pyrazin-3-yl]-2,2,5,5-tetrafluorobicyclo[2.2.2]octane-1-carboxylic acid]
0.086 | CC1(C)[C@@H](c2nc(-c3ccc([C@@](C)(O)c4cccc(C(F)(F)F)c4)cc3)c3c(N)nccn23)CC[C@@]1(C)C(=O)O [Example 13, (1R,3S)-3-[8-amino-1-(4-{(1R)-1-hydroxy-1-[3-(trifluoromethyl)phenyl]ethyl}phenyl)imidazo[1,5-a]pyrazin-3-yl]-1,2,2-trimethylcyclopentanecarboxylic acid]
1 | CC(C)[C@]1(C(=O)O)CCC[C@@H](c2nc(-c3ccc([C@](C)(O)c4cccc(C(F)(F)F)c4)cc3)c3c(N)nccn23)C1 [Example 14, (1S,3R)-3-[8-amino-1-(4-{(1S)-1-hydroxy-1-[3-(trifluoromethyl)phenyl]ethyl}phenyl)imidazo[1,5-a]pyrazin-3-yl]-1-(1-methylethyl)cyclohexanecarboxylic acid]
0.104 | CC(C)[C@@]1(C(=O)O)CCC[C@H](c2nc(-c3ccc([C@](C)(O)c4cccc(C(F)(F)F)c4)cc3)c3c(N)nccn23)C1 [Example 15, (1R,3S)-3-[8-amino-1-(4-{(1S)-1-hydroxy-1-[3-(trifluoromethyl)phenyl]ethyl}phenyl)imidazo[1,5-a]pyrazin-3-yl]-1-(1-methylethyl)cyclohexanecarboxylic acid]
0.0076 | C[C@]1(C(=O)O)CC[C@](C)(c2nc(-c3ccc([C@@](C)(O)c4cccc(C(F)(F)F)c4)cc3)c3c(N)nccn23)C1 [Example 16, (1S,3S)-3-[8-amino-1-(4-{(1R)-1-hydroxy-1-[3-(trifluoromethyl)phenyl]ethyl}phenyl)imidazo[1,5-a]pyrazin-3-yl]-1,3-dimethylcyclopentanecarboxylic acid]
0.0551 | C[C@@]1(C(=O)O)CC[C@](C)(c2nc(-c3ccc([C@@](C)(O)c4cccc(C(F)(F)F)c4)cc3)c3c(N)nccn23)C1 [Example 17, (1R,3S)-3-[8-amino-1-(4-{(1R)-1-hydroxy-1-[3-(trifluoromethyl)phenyl]ethyl}phenyl)imidazo[1,5-a]pyrazin-3-yl]-1,3-dimethylcyclopentanecarboxylic acid]
0.178 | C[C@]1(C(=O)O)CC[C@@](C)(c2nc(-c3ccc([C@@](C)(O)c4cccc(C(F)(F)F)c4)cc3)c3c(N)nccn23)C1 [Example 18, (1S,3R)-3-[8-amino-1-(4-{(1R)-1-hydroxy-1-[3-(trifluoromethyl)phenyl]ethyl}phenyl)imidazo[1,5-a]pyrazin-3-yl]-1,3-dimethylcyclopentanecarboxylic acid]
0.0041 | CCOc1cc(C(C)(O)c2cccc(C)c2)ccc1-c1nc(C23CCC(C(=O)O)(CC2)CC3)n2ccnc(N)c12 (stereo not shown) [Example 19, 4-(8-amino-1-{2-ethoxy-4-[1-hydroxy-1-(3-methylphenyl)ethyl]phenyl}imidazo[1,5-a]pyrazin-3-yl)bicyclo[2.2.2]octane-1-carboxylic acid]
